Test results reported in patent US20230346717A1, “IDENTIFICATION AND USE OF COMPOUNDS IN THE TREATMENT OR PREVENTION OF SEVERE ACUTE RESPIRATORY SYNDROME CORONAVIRUS 2” (priority 2020, published 2023).
Where a name gives a salt, the structure may show the parent alone.

Legend:
Type in all cases: cell-based, human
[1] = test system: LGMN; assay: Gene expression assay, lysosome gene LGMN; conditions: probe 201212_at; ARPE-19/HPV-16, 10 μM, 24 h
Excerpt: (§1) A drug screen was used to test agents having the potential to treat or prevent SARS-CoV-2 infection. The retinal pigment epithelia cell line, ARPE-19/HPV-16, was chosen to establish a database of drug profiles because of its non-cancerous, human origin, with a normal karyotype. ARPE-19/HPV-16 can be easily grown as monolayer in 96-well plates and expresses a variety of well known, neuronal, cell surface receptors that include the dopamine receptor D2, the serotonin receptors 1A, 2A, and 2C, the muscarinic receptor M3, and the histamine receptor H1.
(§2) Cell lines were propagated according to supplier's specifications (ATCC Manassas, VA). Compounds were obtained from Sigma (St. Louis, MO) or Vanda Pharmaceuticals (Washington, DC). Cells were aliquoted on 96-well plates (˜2×10^5 cells/well) and incubated for 24 hours prior to providing fresh media with a drug, or the drug vehicle (water, dimethyl sulfoxide, ethanol, methanol, or phosphate-buffered saline solution). Drugs were diluted 1000-fold in buffered Advanced D-MEM/F-12 culture medium (Invitrogen, Carlsbad, CA) containing nonessential amino acids and 110 mg/L sodium pyruvate. […]
(§3) Cells were harvested 24 hours after treatment and RNA was extracted using the RNeasy 96 protocol (Qiagen, Valencia, CA). […] A total of 708 microarrays were analyzed including 74 for 18 antipsychotics, 499 for 448 other compounds, and 135 for vehicle controls. […]

[2] = test system: BCL10; assay: Gene expression assay, lysosome gene BCL10; conditions: probe 205263_at; ARPE-19/HPV-16, 10 μM, 24 h
Excerpt: as §1, §2, §3

[3] = test system: GJA1; assay: Gene expression assay, lysosome gene GJA1; conditions: probe 201667_at; ARPE-19/HPV-16, 10 μM, 24 h
Excerpt: as §1, §2, §3

[4] = test system: CD164; assay: Gene expression assay, lysosome gene CD164; conditions: probe 208654_s_at; ARPE-19/HPV-16, 10 μM, 24 h
Excerpt: as §1, §2, §3

[5] = test system: CTSH; assay: Gene expression assay, lysosome gene CTSH; conditions: probe 202295_s_at; ARPE-19/HPV-16, 10 μM, 24 h
Excerpt: as §1, §2, §3

[6] = test system: CPQ; assay: Gene expression assay, lysosome gene CPQ; conditions: ARPE-19/HPV-16, 10 μM, 24 h
Excerpt: as §1
Cell lines were propagated according to supplier's specifications (ATCC Manassas, VA). Compounds were obtained from Sigma (St. Louis, MO) or Vanda Pharmaceuticals (Washington, DC). Cells were aliquoted on 96-well plates (˜2×10^5 cells/well) and incubated for 24 hours prior to providing fresh media with a drug, or the drug vehicle (water, dimethyl sulfoxide, ethanol, methanol, or phosphate-buffered saline solution). Drugs were diluted 1000-fold in buffered Advanced D-MEM/F-12 culture medium (Invitrogen, Carlsbad, CA) containing nonessential amino acids and 110 mg/L sodium pyruvate. In these conditions, no significant changes of pH were expected, which was confirmed by the monitoring of the pH indicator present in the medium.
A final 10 μM drug concentration was chosen because it is believed to fit in the range of physiological relevance. Microscopic inspection of each well was conducted at the end of the treatment to discard any samples where cells had morphological changes consistent with apoptosis. It was also verified that the drug had not precipitated in the culture medium.
Cells were harvested 24 hours after treatment and RNA was extracted using the RNeasy 96 protocol (Qiagen, Valencia, CA). Gene expression for 22,238 probe sets of 12,490 genes was generated with U133A2.0 microarrays following the manufacturer's instructions (Affymetrix, Santa Clara, CA). Drugs were profiled in duplicate or triplicate, with multiple vehicle controls on each plate. A total of 708 microarrays were analyzed including 74 for 18 antipsychotics, 499 for 448 other compounds, and 135 for vehicle controls.
The raw scan data were first converted to average difference values using MAS 5.0 (Affymetrix). The average difference values of both treatment and control data were set to a minimum threshold of 50 if below 50. For each treatment instance, all probe sets were then ranked based on their amplitude, or level of expression relative to the vehicle control (or average of controls when more than one was used). Amplitude was defined as the ratio of expression (t−v)/[(t+v)/2] where t corresponds to treatment instance and v to vehicle instance. […]

`NC12CC3CC(CC(C3)C1)C2` [Amantadine Hydrochloride] was tested, and the “avg_tx (log2) LGMN” value [1] was 8.33 log2, the “diff (log2) LGMN” value [1] was −1.35 log2 and the “avg_tx (log2) BCL10” value [2] was 7.44 log2. The “diff (log2) BCL10” value [2] was −1.25 log2, the “avg_tx (log2) GJA1” value [3] was 11.23 log2 and the “diff (log2) GJA1” value [3] was −1.76 log2. For the same compound, the “avg_tx (log2) CD164” value [4] was 8.7 log2, the “diff (log2) CD164” value [4] was −1.34 log2 and the “avg_tx (log2) CTSH” value [5] was 9.62 log2. For the same compound, the “diff (log2) CTSH” value [5] was −2.51 log2, the “avg_tx (log2) CPQ” value ([6]; probe 203501_at) was 6.41 log2 and the “diff (log2) CPQ” value ([6]; probe 203501_at) was −1.55 log2. For the same compound, the “avg_tx (log2) CPQ” value ([6]; probe 208454_s_at) was 7.3 log2 and the “diff (log2) CPQ” value ([6]; probe 208454_s_at) was −1.34 log2.
